{"source": "ChEMBL document CHEMBL5678795", "about": "(Eur J Pharmacol, 1999)", "key": {"[1]": {"target": "D(4) dopamine receptor (Homo sapiens) (UniProt P21917)", "sequence (P21917 whole entry)": "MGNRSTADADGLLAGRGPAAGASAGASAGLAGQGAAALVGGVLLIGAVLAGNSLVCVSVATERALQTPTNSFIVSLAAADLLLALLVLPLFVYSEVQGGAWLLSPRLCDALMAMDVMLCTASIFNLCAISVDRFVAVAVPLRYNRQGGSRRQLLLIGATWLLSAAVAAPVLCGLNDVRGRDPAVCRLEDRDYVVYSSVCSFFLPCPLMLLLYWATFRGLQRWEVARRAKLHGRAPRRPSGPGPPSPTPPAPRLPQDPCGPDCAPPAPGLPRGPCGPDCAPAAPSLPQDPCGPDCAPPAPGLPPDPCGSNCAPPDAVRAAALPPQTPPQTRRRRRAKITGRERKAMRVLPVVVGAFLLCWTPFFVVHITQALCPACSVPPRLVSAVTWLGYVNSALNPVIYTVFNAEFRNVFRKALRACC", "assay": "Displacement of [3H]methyl-spiperone from human recombinant dopamine D4 receptor at 10 uM incubated for 60 mins by radiometric based scintillation counter assay relative to control"}, "[2]": {"assay": "Plasma clearance in Sprague-Dawley rat at 5 mg/kg, iv administered for 12 hrs by reverse phase HPLC-UV analysis", "type": "ADME, organism-based"}, "[3]": {"target": "Mu-type opioid receptor (Homo sapiens) (UniProt P35372)", "sequence (P35372 whole entry)": "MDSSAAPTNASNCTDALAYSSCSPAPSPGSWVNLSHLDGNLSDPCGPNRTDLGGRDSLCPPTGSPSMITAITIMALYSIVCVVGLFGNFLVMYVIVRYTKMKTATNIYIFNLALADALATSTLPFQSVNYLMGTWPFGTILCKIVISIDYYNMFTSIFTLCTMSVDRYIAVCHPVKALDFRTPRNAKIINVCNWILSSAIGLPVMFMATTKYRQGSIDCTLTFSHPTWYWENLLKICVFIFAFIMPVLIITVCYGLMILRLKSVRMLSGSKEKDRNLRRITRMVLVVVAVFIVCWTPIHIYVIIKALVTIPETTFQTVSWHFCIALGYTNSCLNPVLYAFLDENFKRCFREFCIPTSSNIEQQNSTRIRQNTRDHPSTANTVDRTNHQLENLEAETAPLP", "assay": "Displacement of [3H]DAMGO from human recombinant mu-Opioid receptor at 10 uM incubated for 120 mins by radiometric based scintillation counter assay relative to control"}, "[4]": {"target": "T1, Endothelin-1 receptor (Rattus norvegicus) (UniProt P26684)", "T1 sequence (whole entry)": "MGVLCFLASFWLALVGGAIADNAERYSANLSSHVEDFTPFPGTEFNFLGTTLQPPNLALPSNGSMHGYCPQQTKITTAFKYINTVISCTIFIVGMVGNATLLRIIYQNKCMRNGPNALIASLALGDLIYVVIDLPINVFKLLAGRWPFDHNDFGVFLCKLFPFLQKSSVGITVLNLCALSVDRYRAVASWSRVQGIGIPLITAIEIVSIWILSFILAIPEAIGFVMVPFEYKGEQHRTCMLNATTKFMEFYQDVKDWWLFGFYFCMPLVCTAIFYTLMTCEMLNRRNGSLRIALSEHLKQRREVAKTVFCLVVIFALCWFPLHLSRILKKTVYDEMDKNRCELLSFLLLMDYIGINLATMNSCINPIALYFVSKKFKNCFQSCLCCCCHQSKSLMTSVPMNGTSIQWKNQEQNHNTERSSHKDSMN", "assay": "Antagonist activity at ETA receptor in rat MMQ cells assessed as inhibition of phosphatidylinositol hydrolysis in presence of myo-[3H] inositol by anion exchange chromatography", "type": "functional, cell-based"}, "[5]": {"target": "T2, Endothelin-1 receptor (Homo sapiens) (UniProt P25101)", "T2 sequence (whole entry)": "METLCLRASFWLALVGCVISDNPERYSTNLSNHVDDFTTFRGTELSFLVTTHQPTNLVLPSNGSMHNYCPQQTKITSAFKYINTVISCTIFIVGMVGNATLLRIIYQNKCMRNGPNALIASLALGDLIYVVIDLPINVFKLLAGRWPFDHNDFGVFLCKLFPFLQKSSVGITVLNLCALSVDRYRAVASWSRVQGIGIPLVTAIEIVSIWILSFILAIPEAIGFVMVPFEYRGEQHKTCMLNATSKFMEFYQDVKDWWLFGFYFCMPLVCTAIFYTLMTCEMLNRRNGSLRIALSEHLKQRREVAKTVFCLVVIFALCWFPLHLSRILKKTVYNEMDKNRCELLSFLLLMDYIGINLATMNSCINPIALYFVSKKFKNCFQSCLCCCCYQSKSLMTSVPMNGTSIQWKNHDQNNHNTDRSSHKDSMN", "assay": "Displacement of [125I]endhothelin-1 from human ETA receptor stably expressed in CHO cells Membrane assessed as maximum binding at 25 degC at 0.25 to 1.0 nM incubated for 4 hrs by saturation binding assay", "type": "cell membranes", "details": "dose 0.25-1 nM"}, "[6]": {"target": "D(3) dopamine receptor (Homo sapiens) (UniProt P35462)", "sequence (P35462 whole entry)": "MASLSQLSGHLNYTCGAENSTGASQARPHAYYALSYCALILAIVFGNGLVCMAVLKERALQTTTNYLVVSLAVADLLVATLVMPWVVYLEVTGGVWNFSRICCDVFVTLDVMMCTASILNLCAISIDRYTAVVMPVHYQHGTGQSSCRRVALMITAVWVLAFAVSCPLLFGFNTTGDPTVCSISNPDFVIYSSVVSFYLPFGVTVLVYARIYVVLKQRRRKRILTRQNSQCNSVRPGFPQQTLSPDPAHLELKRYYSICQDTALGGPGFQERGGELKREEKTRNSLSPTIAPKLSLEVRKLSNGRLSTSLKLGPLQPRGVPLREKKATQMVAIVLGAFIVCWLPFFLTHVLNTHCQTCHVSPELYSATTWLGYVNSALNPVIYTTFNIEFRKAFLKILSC", "assay": "Displacement of [3H]methyl-spiperone from human recombinant dopamine D3 receptor at 10 uM incubated for 60 mins by radiometric based scintillation counter assay relative to control"}, "Homo sapiens": {"species_on_record": "Homo sapiens", "assay": "Inhibition of L-type Ca2+ channel (unknown origin) at 10 uM by radioligand binding assay relative to control"}, "[7]": {"target": "Endothelin receptor type B (Oryctolagus cuniculus) (UniProt Q9N0W7)", "sequence (Q9N0W7 whole entry)": "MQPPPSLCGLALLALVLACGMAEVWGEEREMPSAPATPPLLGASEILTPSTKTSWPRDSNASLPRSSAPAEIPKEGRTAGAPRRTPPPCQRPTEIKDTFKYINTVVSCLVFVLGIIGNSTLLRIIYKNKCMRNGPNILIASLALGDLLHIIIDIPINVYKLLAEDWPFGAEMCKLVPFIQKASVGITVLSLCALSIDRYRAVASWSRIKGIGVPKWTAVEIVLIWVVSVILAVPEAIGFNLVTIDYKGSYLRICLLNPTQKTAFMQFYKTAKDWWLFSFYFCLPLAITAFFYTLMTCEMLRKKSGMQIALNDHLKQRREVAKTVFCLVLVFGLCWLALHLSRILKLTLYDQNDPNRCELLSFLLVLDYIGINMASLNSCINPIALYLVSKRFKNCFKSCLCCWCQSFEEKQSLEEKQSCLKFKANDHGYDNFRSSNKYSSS", "assay": "Antagonist activity to ETB receptor in rabbit pulmonary artery assessed as induction of vessel ring contraction preincubated for 15 mins", "type": "functional, tissue-based"}}, "note": "Active and inactive are the calls of the source. The calls are words filed in the database; no cut-off is given here.", "data": [{"smiles": "CCCCN(CCCC)C(=O)CN1[C@H](c2cc(OC)c3c(c2)OCO3)C[C@@H](C(=O)O)[C@@H]1CC(C)(C)CCC", "values": [{"measurement": "inhibition", "setting": "[1]", "value": "< 10", "unit": "%"}, {"measurement": "clearance", "setting": "[2]", "value": 25, "unit": "mL/min/kg"}, {"measurement": "inhibition", "setting": "[3]", "value": 17, "unit": "%"}, {"measurement": "Activity", "setting": "[4]", "value": "inactive"}, {"measurement": "Bmax", "setting": "[5]", "value": "inactive"}, {"measurement": "inhibition", "setting": "[6]", "value": "< 10", "unit": "%"}, {"measurement": "inhibition", "setting": "Homo sapiens", "value": 29, "unit": "%"}, {"measurement": "Activity", "setting": "[7]", "value": "inactive"}]}]}
